Legend:
Cucumis sativus [1] = experiment: Inhibition of fatty acid synthesis in Cucumis sativus (cucumber) assessed as inhibition of [14C]acetate incoporation in total fatty acids at 100 uM measured as total disintegration per g of fresh weight after 3 hr by liquid scintillation counting (reference value: 9.2 +/- 2.1 dpm x 10^6 g'1 fresh wt); format: functional
Hordeum vulgare [2] = experiment: Inhibition of fatty acid synthesis in Hordeum vulgare (barley) using [14C]malonate assessed as [14C]-labeled 24C fatty acid level at 1 uM after 3 hr by liquid scintillation counting (reference value: 20.7 +/- 1.8%); format: functional; parameters: scale not given: the % may be the effect or the level left
Hordeum vulgare [3] = experiment: Inhibition of fatty acid synthesis in Hordeum vulgare (barley) using [14C]acetate assessed as [14C]-labeled 16C fatty acid level at 1 uM after 3 hr by liquid scintillation counting (reference value: 23.3 +/- 0.2%); format: functional; parameters: scale not given: the % may be the effect or the level left
Acetyl-CoA carboxylase [4] = target: T1, Acetyl-CoA carboxylase (Zea mays, UniProt Q3V4E6); experiment: Inhibition of Zea mays (maize) chloroplastic ACCase using acetyl-coA as substrate assessed as inhibition of [14C]NaHCO3 incorporation into malonyl-coA incubated for 10 min prior to substrate addition measured for 20 min by liquid scintillation counting
T1 sequence (Q3V4E6 whole entry): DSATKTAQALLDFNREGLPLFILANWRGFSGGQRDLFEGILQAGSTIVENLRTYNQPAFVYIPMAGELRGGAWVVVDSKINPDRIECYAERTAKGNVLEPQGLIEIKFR

Cucumis sativus [5] = experiment: Inhibition of fatty acid synthesis in Cucumis sativus (cucumber) using [14C]acetate assessed as [14C]-labeled 16C fatty acid level at 100 uM after 3 hr by liquid scintillation counting (reference value: 31 +/- 2.8%); format: functional; parameters: scale not given: the % may be the effect or the level left
Hordeum vulgare [6] = experiment: Inhibition of fatty acid synthesis in Hordeum vulgare (barley) assessed as inhibition of [14C]malonate incoporation in total fatty acids at 1 uM measured as total disintegration per g of fresh weight after 3 hr by liquid scintillation counting (reference value: 5.4 +/- 0.9 1 dpm x 10^6 g'1 fresh wt); format: functional
Cucumis sativus [7] = experiment: Inhibition of fatty acid synthesis in Cucumis sativus (cucumber) using [14C]acetate assessed as [14C]-labeled 18C fatty acid level at 100 uM after 3 hr by liquid scintillation counting (reference value: 43.9 +/- 3.6%); format: functional; parameters: scale not given: the % may be the effect or the level left
Hordeum vulgare [8] = experiment: Inhibition of fatty acid synthesis in Hordeum vulgare (barley) using [14C]malonate assessed as [14C]-labeled 20C fatty acid level at 1 uM after 3 hr by liquid scintillation counting (reference value: 6.1 +/- 0.5%); format: functional; parameters: scale not given: the % may be the effect or the level left
Hordeum vulgare [9] = experiment: Inhibition of fatty acid synthesis in Hordeum vulgare (barley) using [14C]acetate assessed as [14C]-labeled 18C fatty acid level at 1 uM after 3 hr by liquid scintillation counting (reference value: 42.6 +/- 2.4%); format: functional; parameters: scale not given: the % may be the effect or the level left
Hordeum vulgare [10] = experiment: Inhibition of fatty acid synthesis in Hordeum vulgare (barley) using [14C]malonate assessed as [14C]-labeled 18C fatty acid level at 1 uM after 3 hr by liquid scintillation counting (reference value: 30.3 +/- 2.9%); format: functional; parameters: scale not given: the % may be the effect or the level left
Hordeum vulgare [11] = experiment: Inhibition of fatty acid synthesis in Hordeum vulgare (barley) assessed as inhibition of [14C]acetate incoporation in total fatty acids at 1 uM measured as total disintegration per g of fresh weight after 3 hr by liquid scintillation counting (reference value: 4.6 +/- 1.2 dpm x 10^6 g'1 fresh wt); format: functional
Hordeum vulgare [12] = experiment: Inhibition of fatty acid synthesis in Hordeum vulgare (barley) using [14C]malonate assessed as [14C]-labeled 22C fatty acid level at 1 uM after 3 hr by liquid scintillation counting (reference value: 26.7 +/- 2.6%); format: functional; parameters: scale not given: the % may be the effect or the level left
Hordeum vulgare [13] = experiment: Inhibition of fatty acid synthesis in Hordeum vulgare (barley) using [14C]acetate assessed as [14C]-labeled 24C fatty acid level at 1 uM after 3 hr by liquid scintillation counting (reference value: 11 +/- 0.8%); format: functional; parameters: scale not given: the % may be the effect or the level left
Acetyl-CoA carboxylase [14] = target: T1, Acetyl-CoA carboxylase; experiment: Inhibition of Zea mays (maize) cytosolic ACCase using acetyl-coA as substrate assessed as inhibition of [14C]NaHCO3 incorporation into malonyl-coA incubated for 10 min prior to substrate addition measured for 20 min by liquid scintillation counting
Hordeum vulgare [15] = experiment: Inhibition of fatty acid synthesis in Hordeum vulgare (barley) using [14C]acetate assessed as [14C]-labeled 22C fatty acid level at 1 uM after 3 hr by liquid scintillation counting (reference value: 16.6 +/- 0.6%); format: functional; parameters: scale not given: the % may be the effect or the level left
Hordeum vulgare [16] = experiment: Inhibition of fatty acid synthesis in Hordeum vulgare (barley) using [14C]malonate assessed as [14C]-labeled 16C fatty acid level at 1 uM after 3 hr by liquid scintillation counting (reference value: 8.7 +/- 0.2%); format: functional; parameters: scale not given: the % may be the effect or the level left
Hordeum vulgare [17] = experiment: Inhibition of fatty acid synthesis in Hordeum vulgare (barley) using [14C]acetate assessed as [14C]-labeled 20C fatty acid level at 1 uM after 3 hr by liquid scintillation counting (reference value: 6.6 +/- 2.3%); format: functional; parameters: scale not given: the % may be the effect or the level left
Cucumis sativus [18] = experiment: Inhibition of fatty acid synthesis in Cucumis sativus (cucumber) using [14C]acetate assessed as [14C]-labeled 22C fatty acid level at 100 uM after 3 hr by liquid scintillation counting (reference value: 10.2 +/-1.6%); format: functional; parameters: scale not given: the % may be the effect or the level left
Cucumis sativus [19] = experiment: Inhibition of fatty acid synthesis in Cucumis sativus (cucumber) using [14C]acetate assessed as [14C]-labeled 20C fatty acid level at 100 uM after 3 hr by liquid scintillation counting (reference value: 14.7 +/- 0.6%); format: functional; parameters: scale not given: the % may be the effect or the level left
Hordeum vulgare [20] = experiment: Inhibition of fatty acid synthesis in Hordeum vulgare (barley) using [14C]malonate assessed as [14C]-labeled 26C fatty acid level at 1 uM after 3 hr by liquid scintillation counting (reference value: 7.6 +/- 1.8%); format: functional; parameters: scale not given: the % may be the effect or the level left

**Q.** What does the source list for `CCc1cc(C)cc(CC)c1C1C(=O)N2CCOCCN2C1=O` [PINOXADEN DIONE]?
**A.** Activity (Cucumis sativus [1]): 9.2 ×10⁶ dpm; Activity (Hordeum vulgare [2]): 27.7%; Activity (Hordeum vulgare [3]): 3.1%; IC50 (Acetyl-CoA carboxylase [4]): 0.11 µM; Activity (Cucumis sativus [5]): 30.4%; Activity (Hordeum vulgare [6]): 5.1 ×10⁶ dpm; Activity (Cucumis sativus [7]): 47.4%; Activity (Hordeum vulgare [8]): 7.7%; Activity (Hordeum vulgare [9]): 18.1%; Activity (Hordeum vulgare [10]): 8.3%; Activity (Hordeum vulgare [11]): 2.8 ×10⁶ dpm; Activity (Hordeum vulgare [12]): 41.9%; Activity (Hordeum vulgare [13]): 32.6%; IC50 (Acetyl-CoA carboxylase [14]): 16.9 µM; Activity (Hordeum vulgare [15]): 32.7%; Activity (Hordeum vulgare [16]): 0.5%; Activity (Hordeum vulgare [17]): 3.6%; Activity (Cucumis sativus [18]): 11.9%; Activity (Cucumis sativus [19]): 10.1%; Activity (Hordeum vulgare [20]): 13.8%
